Source: PubChem BioAssay AID1902 (Broad Institute, 2009)
Calls of active or inactive are those of the source.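 The calls were made as follows: active = EC50 no more than a set limit of log units above the highest dose; inactive = the rest.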

Biological target: S. pyogenes SKKanGAS, kanamycin survival, BacTiterGlo, 6 h
Assay: S. pyogenes SKKanGAS kanamycin growth inhibitors – SKKanGAS strain, luminescence, dose confirmation, streptokinase promoter inhibitor project, dose response (AID 1902);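 also: lower survival reflects blocked streptokinase promoter driving kanamycin resistance gene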

| Structure (SMILES) | EC50 |
| --- | --- |
| Cc1ccccc1-n1cnc2cc(NCc3cccs3)ccc21 | 4.69 µM |
| COc1ccc(C(=O)NCC(=O)OCC(=O)N2N=C(c3ccc(Cl)cc3)CC2c2ccco2)cc1OC (stereo not drawn) | 15.6 µM |
| S=c1[nH]nc(-c2cc3c(s2)-c2ccccc2CC3)o1 | 3.87 µM |
| C/C(=N\NC(=S)NCc1ccccc1)c1cccc(Br)c1 | 5.44 µM |
| O=C(N/N=C/c1cc(Br)cc(Br)c1O)c1ccncc1 | 0.658 µM |
| Oc1c(C(Nc2ccccn2)c2cccnc2)cc(Cl)c2cccnc12 (stereo not drawn) | 2.46 µM |
| O=C(CN1C(=O)S/C(=C\C=C\c2ccccc2)C1=O)Nc1ccccc1C(=O)O | 5.62 µM |
| CCCCCCn1c(=O)c(C(=O)Nc2cnccn2)c(O)c2ccccc21 | 2.98 µM |
| N=c1ccn2c(n1)O[C@H]1[C@H](O)[C@@H](CO)O[C@H]12 | 4.89 µM |
| Cc1ccc(C(=O)C(c2ccccc2)N2Cc3ccccc3C2=N)cc1 (stereo not drawn) | 5.75 µM |
| Cc1oc2cc(Br)c(O)c(Br)c2c1-c1ccccc1 | 3.28 µM |
| O=C1c2ccccc2C2=Nc3ccccc3SC(c3ccc(Cl)cc3)C12 (stereo not drawn) | 3.9 µM |
| CC1CC(=O)c2c(cc3c(-c4c(O)cc(O)c5c(O)c6c(cc45)OC(C)CC6=O)c(O)cc(O)c3c2O)O1 (stereo not drawn) | 0.501 µM |
| Cc1onc(-c2ccccc2)c1C(=O)NNC(=S)NC(=O)c1ccc(Br)cc1 | 0.174 µM |
| O=C(OCc1ccc(-c2ccccc2)cc1)c1cccc(O)c1 | 6.29 µM |
| CC(C)c1c(C(=O)N/N=C/c2cccc(OCc3ccccc3)c2)nnn1-c1nonc1N | 9.4 µM |
| Cc1ccc(O)c(/C=N/NC(=O)Cc2ccc(Cl)cc2)c1 | 2.78 µM |
| CN1C(=O)NC(c2ccccc2)(C(F)(F)F)S/C1=C(/C#N)c1nnc(N2CCOCC2)n1-c1ccccc1 (stereo not drawn) | > 15 µM (inactive) |
| CC(C)(C)c1cc(NCc2ccccn2)n2ncc(-c3ccccc3)c2n1 | 0.171 µM |
| O=C(NNC(=S)NC(=O)c1cccs1)c1ccc(NC(=O)c2ccccc2)cc1 | 0.556 µM |
| Cc1ccc2sc(NNC(=O)c3ccc4c(c3)OCCO4)nc2c1C | 3.79 µM |
| O=C(NCc1ccc(F)cc1)C(=O)Nc1nc(C23CC4CC(CC(C4)C2)C3)cs1 | 0.637 µM |
| CCN1/C(=C\c2ccc3cc(C)ccc3[n+]2CC)Sc2cc(C)c(C)cc21 | 4.23 µM |
| O=C(Nc1nc(N2C(=O)c3ccccc3C2=O)n(-c2ccccc2)n1)c1ccc(Cl)cc1 | 10.3 µM |
| CCOC(=O)c1ccc(-n2c(O)c(/C=N/NC(=O)C3COc4ccccc4O3)c3ccccc3c2=O)cc1 (stereo not drawn) | 1.55 µM |
| Cc1ccc(NC(=O)NCc2ccccn2)cc1Cl | > 15 µM (inactive) |

| Structure (SMILES) | EC50 |
| --- | --- |
| CC(=O)c1ccc(N2CCC(c3cc(-c4ccc(Cl)cc4Cl)n[nH]3)CC2)c([N+](=O)[O-])c1 | 2.15 µM |
| CCCCC(=O)NC(=S)NNC(=O)CCc1ccccc1 | 5 µM |
| Cc1ccc(NC(=S)N=Nc2c(O)[nH]c3ccccc23)cc1 | 0.631 µM |
| Cc1nc2c(C(=O)Nc3ccc(N4CCCC(O)C4)cc3)snc2c(=O)[nH]1 (stereo not drawn) | 4.46 µM |
| Cc1cc(Cl)ccc1NC(=S)NCCC(c1ccccc1)c1ccccc1 | 11.1 µM |
| CC(C)CN(C(=O)COc1ccc(-c2nnco2)cc1)C1CCS(=O)(=O)C1 (stereo not drawn) | > 15 µM (inactive) |
| CCn1c(COc2ccc(C)cc2)nnc1SCc1ccc(C#N)cc1 | > 15 µM (inactive) |
| CCCn1c(NC(=O)c2cccc(C)c2C)nc2ccccc21 | 7.37 µM |
| CC1(C)CC(=O)C(C2C3=C(CC(C)(C)CC3=O)Oc3c(Br)cc(Br)cc32)=C(O)C1 (stereo not drawn) | 4.06 µM |
| O=C1NC(=S)/C(=C\c2ccc(-c3ccccc3Cl)o2)S1 | 2.94 µM |
| Cc1[nH]n(-c2ccc(Cl)cc2)c(=O)c1/C=N/n1c(C)nc2ccccc2c1=O | 1.44 µM |
| COc1ccc(C(=O)/C=C/c2ccc(O)cc2)c(O)c1CC=C(C)C | 2.14 µM |
| Cc1ccccc1Oc1nc(-c2ccccn2)nc2ccccc12 | 4.19 µM |
| CCC1(C)Cc2ccccc2-c2nc(-c3ccccc3)oc(=O)c21 (stereo not drawn) | 5.51 µM |
| CCc1ccc(S(=O)(=O)/N=C2\C=C(Nc3ccc(O)cc3)C(=O)c3ccccc32)cc1 | 1.51 µM |
| Cc1cccc(/C=C/C(=O)c2cc(Br)ccc(=O)c2O)c1 | 0.818 µM |
| O=C(c1ccc(O)cc1)c1ccc(C(=O)c2ccc(O)cc2)cc1 | 5.07 µM |
| CCCn1c(=O)c(C(=O)N/N=C/c2ccc(F)cc2)c(O)c2ccccc21 | 3.19 µM |
| Cc1ccccc1CN(C)CC(=O)Nc1ccccc1-c1ccccc1 | 3.3 µM |
| O=C1/C(=C/c2cccnc2)SC(=NCc2ccccc2)N1Cc1ccccc1 | 8.09 µM |
| CC1(c2ccccc2)CC(C)(C)N2C(=O)/C(=C3\SC(=S)NC3=O)c3cccc1c32 (stereo not drawn) | 0.43 µM |
| COc1cc(/C=N\NC(=O)c2ccc(Cn3cc(Br)c([N+](=O)[O-])n3)o2)cc(OC)c1O | 4.97 µM |
| COc1ccc(-c2cc(-c3ccc(Cl)cc3)n[nH]2)c(O)c1 | 8.75 µM |
| COc1cc2ccccc2cc1C(=O)NC(=S)Nc1ccc(C(=O)O)cc1 | 4.44 µM |
| COc1cc(N=c2c([N+](=O)[O-])nn(-c3ccc4c(c3)OCCO4)n2O)cc(OC)c1 | 5.24 µM |
| Cc1cc(/C=C2\SC(=S)N(C)C2=O)c(C)n1-c1ccc(O)cc1 | 2.09 µM |

| Structure (SMILES) | EC50 |
| --- | --- |
| Cn1c(=O)c(C(=O)NNC(=O)c2ccccc2Br)c(O)c2ccccc21 | 7.51 µM |
| Oc1c(CN2CCN(c3ccccc3)CC2)cc(Br)c2cccnc12 | 1.67 µM |
| CCCNC1=C(C)C(=O)C2=C(C1=O)C(COC(N)=O)[C@]1(OC)C3NC3CN21 (stereo partly drawn) | < 0.06 µM |
| COC(=O)c1ccc(Oc2nc3ccccc3n3c(C)nnc23)cc1 | 6.1 µM |
| CCn1nc(C)cc1-c1nnc(Sc2ncc([N+](=O)[O-])s2)n1C | 6.51 µM |
| Cc1ccccc1NC(=O)C(=O)NC(C)CCc1ccccc1 (stereo not drawn) | > 15 µM (inactive) |
| CCOC(=O)c1sc(=S)n2c1[nH]c(=O)c1ccc(C(=O)OC)cc12 | 3.81 µM |
| CCn1cc(CN2CCC(n3nccc3NC(=O)Cc3ccccc3)CC2)cn1 | > 15 µM (inactive) |
| CCOC(=O)c1ccc(-c2ccc3c(=O)c4ccccc4n(C)c3c2)cc1F | 4.15 µM |
| CCCOC(=O)c1ccc(Oc2cn[nH]c2-c2ccc(OC)cc2O)cc1 | 7.36 µM |
| O=C(Nc1nnc(C2=COCCO2)o1)c1ccc(Cc2ccccc2)cc1 | 1.47 µM |
| O=C(CN(c1cccc(Br)c1)S(=O)(=O)c1ccccc1)N/N=C/c1cc([N+](=O)[O-])ccc1O | 0.441 µM |
| Oc1ccccc1N=Cc1c(O)ccc2oc3c(c12)CCCC3 | 5.52 µM |
| CCCCCCc1cc2cc(C(=O)OCC)c(=O)oc2cc1O | 5.46 µM |
| O=C(Nc1nnc(-c2ccc(Cl)cc2)o1)c1ccccc1Br | 1.59 µM |
| CC(Oc1ccc2ccccc2c1)C(=O)NNC(=S)NC(=O)c1ccco1 (stereo not drawn) | 0.149 µM |
| COc1ccc(C(=O)NC(=S)N(Cc2ccccc2)Cc2ccccc2)cc1 | 0.674 µM |
| CCC1(C)Cc2c(sc3nc(SC)[nH]c(=S)c23)CO1 (stereo not drawn) | 1.87 µM |
| Cc1ccc(-c2cc(-c3ccccc3)nc(N(C)N)n2)cc1 | 6.06 µM |
| COc1ccc2c(c1)c(CC(=O)NCc1cc([N+](=O)[O-])ccc1O)c(C)n2C(=O)c1ccc(Cl)cc1 | 9.89 µM |
| COc1ccccc1N=Nc1ccc(O)c2ncccc12 | 0.665 µM |
| COc1c(CC=C(C)C)cc(C2CC(=O)c3c(O)cc(O)cc3O2)cc1CC=C(C)C (stereo not drawn) | 1.99 µM |
| COc1ccc(OCCCC(=O)Nc2nc(-c3ccccn3)cs2)cc1 | 0.309 µM |
| COc1ccc(NS(=O)(=O)c2ccc3nc(COc4cccc5ccccc45)[nH]c3c2)cc1 | 5.97 µM |
| Cc1ccc(S(=O)(=O)Nc2cccc3ncccc23)s1 | 2.87 µM |
| COc1ccc(-c2cn[nH]c2-c2ccc(OC)cc2)cc1 | 6.64 µM |
